# Experimental data from patent EP4613329A1, “COMPOUND FOR INHIBITING BRD PROTEIN” (Benobio Co., Ltd., priority 2024, dated 2025).
# pIC50: −log10 of the molar value.
# How the values were obtained:
# [1] = biological target: T1, BRD2 (BD1) (Homo sapiens, UniProt P25440); assay: Binding inhibitory effect on BRD2 protein (AlphaScreen, GST-BRD2 (BD1) / biotinylated acetyl-histone H4 peptide); details: 100 nM GST-BRD2 (BD1), 100 nM biotinylated acetyl-histone H4 (Lys5, 8, 12, 16) peptide
# T1 construct: a bromodomain of BRD2 (BD1) and BRD3 (BD1), one of the BRD protein family
# T1 sequence (P25440 74-180 limits assumed, species assumed): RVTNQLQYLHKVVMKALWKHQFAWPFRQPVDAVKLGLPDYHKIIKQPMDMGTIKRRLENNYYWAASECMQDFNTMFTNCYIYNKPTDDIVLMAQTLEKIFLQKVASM
# [2] = test system: retinal degeneration mouse model; assay: Electroretinogram (ERG) in blue LED-induced retinal degeneration mouse model; format: in vivo, albino BALB/c mice; details: compound 24 nM, Com. Ex. 4 25 mg/kg; for Wavelength enhanced multiple compared to normal saline-treated group, Average value: average of a-wave and b-wave, intravitreal; for Wavelength enhanced multiple compared to normal saline-treated group, a-wave / Wavelength enhanced multiple compared to normal saline-treated group, b-wave: single intravitreal injection 1 hour after LED exposure
# Method: In order to fabricate a retinal degeneration model, 7-week-old male albino BALB/c mice were used. Three mice were randomly assigned to each test group, and light and dark were maintained at 12-hour intervals. Each mouse was dark-adapted for 24 hours and then the pupils were dilated with 0.5% tropicamide and 0.5% phenylephrine hydrochloride eye drops (Santen, Osaka, Japan) 30 minutes before blue LED exposure. Unanesthetized mice were exposed to 2,000 lux of a blue LED (460 ± 10 nm) for 2 hours in a cage with reflective interiors. The light intensity was measured using an LED photometer (model TM-201L, TENMARS Electronics, Taipei, Taiwan). After exposure to blue LED, the mice were kept in the dark for 24 hours and then resumed on a 12-hour light/dark cycle for 3 days.
# In a test substance control test, mice with retinal degeneration were divided into a normal saline-administered group and a compound-administered group (24 nM) of the present disclosure, and 3 mice were randomly assigned to each test group. A positive control test was divided into a normal saline-administered group and an Eyela (25 mg/kg mouse body weight)-administered group (Comparative Example 4), and three mice were randomly assigned to each test group.
# All test groups were administered as a single dose by intravitreal injection 1 hour after LED exposure.
# That is, mice were stored in a completely dark room for 16 hours before ERG recordings. All animals were anesthetized intraperitoneally with zolazepam (20 mg/kg) and xylazine (7.5 mg/kg). The cornea was coated with hydroxypropyl methylcellulose gel and covered with a gold ring contact electrode. Ground and reference electrodes were disposed subcutaneously on the tail and ears, respectively. Stimuli were short white flashes delivered through a Ganzfeld stimulator (UTAS-3000; LKC Technologies, Gaithersburg, MD, USA). The signal was amplified and filtered through a digital band-pass filter in the range of 5 to 300 Hz to generate a and b waves. Scotopic ERG, and rod-mediated responses were obtained at increasing light intensities of 0.025 and 3.96 cd/s • m^2. Photopic, cone-mediated responses were obtained after 5-min light adaptation to background light intensity. The recordings were obtained at the light intensity of 6.28 cd/s • m^2. Each recording was the average of three responses obtained within a 15-second stimulation interval. A-wave amplitude was measured from a baseline to the maximum a-wave peak, and b-wave amplitude was measured from the maximum a-wave peak to the maximum b-wave peak.
# [3] = test system: macular degeneration animal model; assay: Laser burn-induced macular degeneration animal model, OCT and FFA image analysis; format: in vivo, mouse; details: compounds 0.022 µg/eye, Com. Ex. 4 20 µg/eye
# Method: After the mouse was subjected to general anesthesia, the eye was applied with anesthetic eye drops to be subjected to additional local anesthesia and additionally induce mydriasis. A macular degeneration animal model was prepared by destroying the Bruch's membrane by inducing laser burn according to macular degeneration induction conditions. […] On day 11 of macular degeneration induction, the mice were subjected to general anesthesia and then injected intraperitoneally with a fluorescent contrast agent. The mouse was placed on the sacrifice table, lubricating gel was dropped into the corresponding eye, and an OCT lens was brought into contact with the mouse's cornea. Image analysis for fluorescein fundus angiography (FFA) and OCT was performed using the Image-J program.
# [4] = biological target: T2, BRD3 (BD1) (Homo sapiens, UniProt Q15059); assay: Binding inhibitory effect on BRD3 protein (same manner as Experimental Example 1-1)
# T2 construct: a bromodomain of BRD2 (BD1) and BRD3 (BD1), one of the BRD protein family; GST
# T2 sequence (Q15059 34-140 limits assumed, species assumed): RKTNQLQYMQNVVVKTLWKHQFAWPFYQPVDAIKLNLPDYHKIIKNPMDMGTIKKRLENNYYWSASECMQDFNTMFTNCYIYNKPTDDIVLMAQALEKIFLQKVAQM
smiles,measurement,setting,value
CNC(=O)C1(Cc2ccccc2)CCCN1Cc1ccc(-c2ccccc2-c2cccc3c2CN(C)C3=O)o1 (centres unmarked) [Compound 28],pIC50,[1],4.96
same,"Wavelength enhanced multiple compared to normal saline-treated group, Average value",[2],1.33
same,"Wavelength enhanced multiple compared to normal saline-treated group, a-wave",[2],1.31
same,"Wavelength enhanced multiple compared to normal saline-treated group, b-wave",[2],1.35
same,Lesion size compared to negative control group (FFA),"[3]; FFA imaging, day 11, negative control = excipient",35.40%
same,CTF value,"[3]; FFA imaging, day 11 of macular degeneration induction, both eyes","325,936 Pixels"
same,Lesion size compared to negative control group (OCT),"[3]; OCT imaging, day 11, negative control = excipient",51.99%
same,Volume of lesion,"[3]; OCT imaging, day 11 of macular degeneration induction, both eyes","1,132,542 µm^3"
same,pIC50,[4],5.36
"CNC(=O)CC1C(=O)NCCN1Cc1oc(-c2ccccc2-c2cccc3c2CN(C)C3=O)cc1C (centres unmarked) [Compound 42, 2-methyl-4-(2-(5-(3-methyl(N-methyl-2-(3-oxopiperazine-2yl)acetamidyl)methyl)furan-2-yl)phenyl)isoindoline-1-one]",pIC50,[1],4.96
same,"Wavelength enhanced multiple compared to normal saline-treated group, Average value",[2],1.32
same,"Wavelength enhanced multiple compared to normal saline-treated group, a-wave",[2],1.25
same,"Wavelength enhanced multiple compared to normal saline-treated group, b-wave",[2],1.38
same,pIC50,[4],5.42
